The values below come from PubChem BioAssay AID1996.

In brackets after ≈: the same amount, converted by molar mass.

For this data set the following is noted: buffer; pH 7.4; 200.0 µM.
Take `CC(C)c1ccc(CN2C(=O)NC3(CCCCCC3)C2=O)cc1`: the solubility (kinetic) (as a rule, the concentration staying in solution when a stock, usually in DMSO, is diluted into the medium) was below 0.3 µg/mL.

`CNc1nc(-c2ccc(OC)cc2)c(-c2ccc(OC)cc2)s1` showed a kinetic solubility of 1.8 µg/mL (≈ 5.51 µM).

The compound `O=S(=O)(/C=C/c1cccc(Br)c1)N1CCOCC1` had a kinetic solubility of 40 µg/mL (≈ 120 µM).

In the case of `CC(C)C(=O)Nc1nc2cc3c(cc2s1)OCCO3`, the kinetic solubility worked out at 37.4 µg/mL (≈ 134 µM).

With `CCCC(=O)Nc1ccc(NC(=O)c2cccc(OC)c2)cn1`, the kinetic solubility came out at 8.7 µg/mL (≈ 27.8 µM).

As to `COc1ccc2cc[nH]c2c1`, the solubility (kinetic) was determined as 15.3 µg/mL (≈ 104 µM).

`CCCNC(=O)CNC(=S)N(Cc1ccccc1F)C1CCCCC1` registered a solubility (kinetic) of 42.3 µg/mL (≈ 116 µM).

In turn, `COc1cc(=O)[nH]c(SC(C)C(=O)Nc2cc(C)on2)n1` (stereo unspecified) returned a solubility (kinetic) above 46.5 µg/mL.

`CN(C)S(=O)(=O)c1cccc(COc2cccnc2[N+](=O)[O-])c1` displayed a kinetic solubility of 12.1 µg/mL (≈ 35.9 µM).

For the compound `O=c1[nH]c2c(Br)cnc([N+](=O)[O-])c2[nH]1`, the solubility (kinetic) is above 38.9 µg/mL.

`COC(=O)c1sccc1Oc1ccc(Cl)cc1N1C(=O)CCC1=O` had a solubility (kinetic) of 48.5 µg/mL (≈ 133 µM).

Consider `Cc1cc(C(=O)NNC(=O)C(CCC(N)=O)NS(=O)(=O)c2ccc(Cl)cc2)c(C)o1` (stereo unspecified), for which the solubility (kinetic) is above 68.5 µg/mL.

Consider `COC(=O)c1ccc(NC(=O)CNc2ccccc2)cc1`, for which the kinetic solubility amounted to 28.3 µg/mL (≈ 99.5 µM).

`COCc1cc(C)nc(SCc2ccc([N+](=O)[O-])cc2)c1C#N`: the kinetic solubility was 5.2 µg/mL (≈ 15.8 µM).

`NS(=O)(=O)c1ccc(CCNC(=O)CSCc2ccccc2)cc1`: the solubility (kinetic) is 42.6 µg/mL (≈ 117 µM).

`COc1ccc(OC)c(NC(=O)c2csc(Cl)c2OC)c1`: the solubility (kinetic) is below 0.7 µg/mL.

In turn, `COC(=O)c1ccsc1NC(=O)c1ccco1` returned a solubility (kinetic) of 3.2 µg/mL (≈ 12.7 µM).

Regarding `CC1CCCCC1NC(=S)Nc1ccc(Cl)cc1Cl` (stereo unspecified), the kinetic solubility was found to be 1 µg/mL (≈ 3.15 µM).

As for `Cc1cc(C(=O)Nc2ccc(C(=O)O)cc2)c(C)o1`, the solubility (kinetic) was above 38.9 µg/mL.

Compound `CC(Oc1ccccc1Cl)C(=O)N1CCCN(C)CC1` (stereo unspecified) had a solubility (kinetic) above 44.5 µg/mL.

Regarding `COC(=O)COc1c(/C=C\c2nc(O)c([N+](=O)[O-])c(=O)[nH]2)cccc1OC`, the kinetic solubility is above 56.6 µg/mL.

For `Cc1ccccc1OCC(=O)OCC(=O)Nc1ccc2c(c1)OCO2`, the solubility (kinetic) came out at 14.9 µg/mL (≈ 43.4 µM).

The compound `Cc1ccc(NC(=O)COC(=O)CC2CC3CCC2C3)cc1S(=O)(=O)N1CCOCC1` (stereo unspecified) came in with a solubility (kinetic) of 10.2 µg/mL (≈ 22.6 µM).

In the case of `COc1ccc2nc(NC(=O)Nc3ccccc3OC)sc2c1`, the kinetic solubility is 1.4 µg/mL (≈ 4.25 µM).

Turning to `CC1CCC(NC(=O)CN2C(=O)c3ccccc3S2(=O)=O)CC1` (stereo unspecified), the solubility (kinetic) was above 50.5 µg/mL.

The compound `COc1ccc(N2CCN(C(=S)Nc3ccccc3)CC2)cc1` returned a kinetic solubility of 1.3 µg/mL (≈ 3.97 µM).

The compound `Cc1cccc(C)c1NC(=O)N1CCC(C(=O)c2ccc(F)cc2)CC1` gave a solubility (kinetic) of 15.4 µg/mL (≈ 43.5 µM).

On to `COc1ccc(CNc2ccc(Br)cc2)cc1`, for which the solubility (kinetic) is below 0.6 µg/mL.

`Cn1c(=O)c2c(nc(SCCN3CCOCC3)n2C)n(C)c1=O`: the kinetic solubility is above 50.9 µg/mL.

`CC(C)(C)NS(=O)(=O)c1ccc(NC(=O)C2CCCO2)cc1` (stereo unspecified) returned a kinetic solubility of 43.7 µg/mL (≈ 134 µM).

`Cc1ccc(NC(=O)C2CCC(C(C)(C)C)CC2)cc1S(=O)(=O)N1CCOCC1` (stereo unspecified) showed a kinetic solubility of 3.5 µg/mL (≈ 8.28 µM).

Compound `Cc1ccc(OCCN2CCOCC2)cc1C` displayed a kinetic solubility above 35.3 µg/mL.

Compound `O=C(CN1C(=O)NC2(CCCC2)C1=O)Nc1ccc(F)c(Cl)c1` had a kinetic solubility above 51 µg/mL.

In turn, `CCNc1c([N+](=O)[O-])c(=O)n(CC)c2ccccc12` showed a solubility (kinetic) of 34.1 µg/mL (≈ 131 µM).

Take `CN(C)S(=O)(=O)c1ccc(Cl)c(NC(=O)CNC2(C)CCS(=O)(=O)C2)c1` (stereo unspecified): the solubility (kinetic) was above 63.6 µg/mL.

On to `Cc1ccc(NC(=O)CN2C(=S)NC(C)(C)CC2C)cc1Cl` (stereo unspecified), for which the kinetic solubility came to 8.2 µg/mL (≈ 24.1 µM).

The compound `Cc1ccc2[nH]c(=O)c(COC(=O)C3CCCCC3)cc2c1` had a kinetic solubility of 2.9 µg/mL (≈ 9.69 µM).

Regarding `CS(=O)(=O)Nc1ccc2c(c1)OCC(=O)N2Cc1ccccc1`, the kinetic solubility stood at 42.4 µg/mL (≈ 128 µM).

`O=S(=O)(c1ccccc1)N1CCN(c2cccc(Cl)c2)CC1` yielded a kinetic solubility of 3.8 µg/mL (≈ 11.3 µM).

As to `COc1ccc(-c2csc(NC(=O)Cc3ccccc3)n2)cc1OC`, the solubility (kinetic) was 0.7 µg/mL (≈ 1.97 µM).

With `Cc1cc2ncc(-c3cccs3)nc2cc1C`, the kinetic solubility is below 0.3 µg/mL.

`Cc1ccc(NC(=O)c2cnccn2)cc1C` came in with a solubility (kinetic) of 31.7 µg/mL (≈ 139 µM).

In the case of `O=C(O)c1ccc(Nc2ccc3nonc3c2[N+](=O)[O-])cc1`, the kinetic solubility was 44.9 µg/mL (≈ 150 µM).

As to `CCOC(=O)c1ccccc1NC(=O)COC(=O)C1CCCC1`, the solubility (kinetic) was determined as 3.1 µg/mL (≈ 9.71 µM).

On to `Cc1cccc(NC(=S)N2CCCN(c3ncccc3[N+](=O)[O-])CC2)c1`, for which the solubility (kinetic) was found to be 39.4 µg/mL (≈ 106 µM).

In turn, `COc1ccccc1CNC(=O)CCN1C(=O)c2ccccc2C1=O` showed a solubility (kinetic) above 50.8 µg/mL.

For the compound `COc1ccccc1CNC(=O)C(=O)Nc1nccs1`, the kinetic solubility is 6 µg/mL (≈ 20.6 µM).

In turn, `Fc1ccccc1CNC(=S)NCc1ccc(Cl)cc1` had a solubility (kinetic) of 3.3 µg/mL (≈ 10.7 µM).

In turn, `Cc1cc(S(=O)(=O)Cc2noc(-c3c(C)noc3C)n2)c(C)cc1Cl` showed a kinetic solubility below 0.3 µg/mL.

For the compound `COc1cccc(CNC(=O)Cn2nc(C)c([N+](=O)[O-])c2C)c1`, the kinetic solubility is above 47.7 µg/mL.

For `O=[N+]([O-])c1ccc(C[n+]2cccc3ccccc32)cc1.[Cl-]`, the solubility (kinetic) was 41 µg/mL.
